Values of other authors, collected in patent publication US20220331235A1, “COMPOSITIONS FOR ORAL MICROADHESIVE DOSAGE FORMS” (FP NUTRACEUTICALS, LLC, priority 2018, published 2022).
One block for each compound: values may come before it.

Assays:
[1] = rat brain
[2] = vitamin B6: from food or supplements

Compound: [O-2].[Zn+2] [Zn-oxide]
plasma zinc rankings based on area under the curve and rank results per person: glycinate>gluconate>picolinate=oxide

Compound: O=C([O-])c1ccccn1.O=C([O-])c1ccccn1.[Zn+2] [Zn-picolinate]
plasma zinc rankings based on area under the curve and rank results per person: glycinate>gluconate>picolinate=oxide

Compound: O=C([O-])c1cc(=O)[nH]c(=O)[nH]1.[Li+] [lithium orotate]
level in the brain compared to the carbonate form [1]: three-fold higher

Compound: NCC(=O)[O-].NCC(=O)[O-].[Zn+2] [zinc glycinate]
bioavailability among four forms of zinc (oxide, picolinate, gluconate, glycinate) (acute uptake): highest bioavailability | plasma zinc rankings based on area under the curve and rank results per person: glycinate>gluconate>picolinate=oxide | increase in bioavailability over zinc gluconate (versus second most-bioavailable form): 43.4%

Compound: zinc gluconate
plasma zinc rankings based on area under the curve and rank results per person: glycinate>gluconate>picolinate=oxide

Results, then the compound that gave them:

bioavailability [2]: 75-100%
Compound: Cc1ncc(CO)c(CO)c1O [vitamin B6, pyridoxine]

bioavailability [2]: 1-2%
Compound: cobalamin [vitamin B12]
